27 molecules from ChEMBL document CHEMBL4609981, “Discovery of novel nonpeptide small-molecule NRP1 antagonists: Virtual screening, molecular simulation and structural modification” (Bioorg Med Chem, 2020) can be followed below.

The target in assay [1] is Vascular endothelial growth factor receptor 2 (Homo sapiens) (UniProt P35968). Kind of assay: Inhibition of recombinant human biotinylated VEGF-165A expressed in HEK293 cells binding to FC-tagged VEGFR2 (unknown origin) using TMB as substrate incubated for 2 hrs followed by substrate addition by competitive ELISA.
Chain of Vascular endothelial growth factor receptor 2 (Homo sapiens) (P35968 whole entry): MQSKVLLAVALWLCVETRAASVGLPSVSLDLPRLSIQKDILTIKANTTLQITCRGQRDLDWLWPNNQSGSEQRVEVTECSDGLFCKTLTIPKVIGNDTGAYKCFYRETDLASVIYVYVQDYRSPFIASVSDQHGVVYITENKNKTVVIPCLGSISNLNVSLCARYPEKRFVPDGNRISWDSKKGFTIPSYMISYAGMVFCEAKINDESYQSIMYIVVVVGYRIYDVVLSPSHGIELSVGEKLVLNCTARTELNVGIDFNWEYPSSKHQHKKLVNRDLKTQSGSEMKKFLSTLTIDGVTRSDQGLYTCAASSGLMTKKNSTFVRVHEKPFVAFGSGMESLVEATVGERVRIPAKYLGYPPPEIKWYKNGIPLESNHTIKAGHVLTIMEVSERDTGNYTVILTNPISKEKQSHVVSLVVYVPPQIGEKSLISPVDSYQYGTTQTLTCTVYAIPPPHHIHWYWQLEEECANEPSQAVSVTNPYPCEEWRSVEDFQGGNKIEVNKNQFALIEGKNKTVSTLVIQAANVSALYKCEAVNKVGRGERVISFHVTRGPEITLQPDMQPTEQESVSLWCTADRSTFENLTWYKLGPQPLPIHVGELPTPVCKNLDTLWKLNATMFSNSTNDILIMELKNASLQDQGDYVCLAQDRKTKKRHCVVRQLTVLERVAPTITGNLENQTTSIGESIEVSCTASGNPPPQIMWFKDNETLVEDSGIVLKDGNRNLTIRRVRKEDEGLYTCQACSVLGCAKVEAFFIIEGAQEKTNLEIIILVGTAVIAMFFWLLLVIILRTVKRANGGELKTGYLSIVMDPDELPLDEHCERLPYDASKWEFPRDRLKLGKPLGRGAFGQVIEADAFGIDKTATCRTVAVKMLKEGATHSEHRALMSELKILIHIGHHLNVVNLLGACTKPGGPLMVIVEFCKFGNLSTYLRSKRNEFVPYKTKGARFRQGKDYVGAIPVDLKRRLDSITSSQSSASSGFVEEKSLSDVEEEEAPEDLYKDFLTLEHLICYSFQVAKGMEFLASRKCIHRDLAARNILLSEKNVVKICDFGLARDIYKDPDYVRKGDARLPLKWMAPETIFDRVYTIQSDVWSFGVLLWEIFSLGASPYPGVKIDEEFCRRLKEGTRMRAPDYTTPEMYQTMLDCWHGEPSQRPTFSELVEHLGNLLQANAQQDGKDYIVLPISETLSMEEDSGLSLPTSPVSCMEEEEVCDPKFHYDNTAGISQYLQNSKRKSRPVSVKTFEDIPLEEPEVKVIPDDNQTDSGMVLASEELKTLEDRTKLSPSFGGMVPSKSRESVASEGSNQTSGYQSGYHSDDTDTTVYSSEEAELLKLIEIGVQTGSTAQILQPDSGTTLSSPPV
Assay [2] has as its target T1, Neuropilin-1 (Homo sapiens, UniProt O14786). The assay can be described thus: Inhibition of recombinant human biotinylated VEGF-165A expressed in HEK293 cells binding to immobilized recombinant full length human FC-tagged NRP1 (chimera active) expressed in HEK293 cells at 11 uM using TMB as substrate incubated for 2 hrs followed by substrate addition by competitive ELISA relative to control.

The target of assay [3] is T1, Neuropilin-1. The assay can be described thus: Inhibition of recombinant human biotinylated VEGF-165A expressed in HEK293 cells binding to immobilized recombinant full length human FC-tagged NRP1 (chimera active) expressed in HEK293 cells using TMB as substrate incubated for 2 hrs followed by substrate addition by competitive ELISA.
For assay [4], the target named is T1, Neuropilin-1. The assay can be described thus: Inhibition of recombinant human biotinylated VEGF-165A expressed in HEK293 cells binding to immobilized recombinant full length human FC-tagged NRP1 (chimera active) expressed in HEK293 cells at 50 uM using TMB as substrate incubated for 2 hrs followed by substrate addition by competitive ELISA relative to control.

For assay [5], the target named is T1, Neuropilin-1. Kind of assay: Inhibition of biotinylated VEGF-165A binding to NRP1 (unknown origin) at 10 uM measured after 2 hrs chemiluminescence analysis relative to control.
Assay [6] addresses T1, Neuropilin-1. Kind of assay: Inhibition of biotinylated […] binding to NRP1 (unknown origin) measured after 2 hrs chemiluminescence analysis.

Active and inactive are the calls of the source. No cut-off for these calls is given here.

T1 sequence (O14786 whole entry): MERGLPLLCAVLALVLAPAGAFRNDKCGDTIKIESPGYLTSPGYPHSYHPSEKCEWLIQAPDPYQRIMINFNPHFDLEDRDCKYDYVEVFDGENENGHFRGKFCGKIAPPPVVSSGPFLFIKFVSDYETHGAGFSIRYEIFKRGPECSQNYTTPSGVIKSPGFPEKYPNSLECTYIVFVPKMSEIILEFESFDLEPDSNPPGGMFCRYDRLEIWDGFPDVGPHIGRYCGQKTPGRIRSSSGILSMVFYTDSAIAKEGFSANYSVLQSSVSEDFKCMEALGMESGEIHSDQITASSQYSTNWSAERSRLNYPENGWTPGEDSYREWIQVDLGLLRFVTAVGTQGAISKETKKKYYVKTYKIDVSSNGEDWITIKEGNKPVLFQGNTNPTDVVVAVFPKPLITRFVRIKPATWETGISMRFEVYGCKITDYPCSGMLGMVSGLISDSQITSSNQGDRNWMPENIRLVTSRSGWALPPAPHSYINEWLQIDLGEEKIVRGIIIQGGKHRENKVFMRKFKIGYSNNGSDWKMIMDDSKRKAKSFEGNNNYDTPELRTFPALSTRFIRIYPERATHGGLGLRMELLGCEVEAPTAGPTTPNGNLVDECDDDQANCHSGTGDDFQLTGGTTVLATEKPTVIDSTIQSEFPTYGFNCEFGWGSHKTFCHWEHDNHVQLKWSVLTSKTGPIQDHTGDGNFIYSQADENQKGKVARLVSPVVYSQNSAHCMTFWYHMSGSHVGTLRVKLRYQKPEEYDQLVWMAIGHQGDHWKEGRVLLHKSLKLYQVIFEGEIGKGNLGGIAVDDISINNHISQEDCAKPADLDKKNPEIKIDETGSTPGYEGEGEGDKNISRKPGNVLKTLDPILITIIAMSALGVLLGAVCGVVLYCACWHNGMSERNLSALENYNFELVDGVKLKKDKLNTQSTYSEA

On to `N=C(N)NCCC[C@H](NC(=O)c1sccc1NS(=O)(=O)c1cccc2nsnc12)C(=O)O`, for which the inhibition entry in assay [1] was “Active”. Also, on Neuropilin-1 [2], the inhibition lay in the range of 49.1 to 49.8%. In addition, on Neuropilin-1 [3], the IC50 fell in the range of 11.1 to 12.7 µM. In the case of `CCc1nnc(NC(=O)CSc2nnc(-c3ccccc3)n2-c2cccc(C)c2)s1`, the inhibition on Neuropilin-1 [4] stood at 66.6%. Further, the IC50 on Neuropilin-1 [3] is 41.1 µM. With `O=C(CSc1nnc(-c2ccccc2)n1-c1cccc(Cl)c1)Nc1nnc(C2CC2)s1`, the inhibition on Neuropilin-1 [4] was determined as 22.5%. On to `O=C(CSc1nnc(-c2ccccc2)n1-c1cccc(Cl)c1)Nc1nccs1`, for which the inhibition on Neuropilin-1 [4] stood at 4%. In the case of `CCc1nnc(NC(=O)CSc2nnc(-c3cccc(C)c3)n2-c2cccc(C)c2)s1`, on Neuropilin-1 [4], the inhibition was 12.6%. On the same count and under the same terms, then `CCc1nnc(NC(=O)CSc2nnc(-c3ccc(N)cc3)n2-c2cccc(C)c2)s1`, with 15.4%; and `CCc1nnc(NC(=O)CSc2nnc(-c3ccccc3)n2-c2cccnc2)s1`, with 0%; and `CCc1nnc(NC(=O)CSc2nnc(-c3ccccc3)n2-c2cccc(Cl)c2)s1`, with 47.6%. The same measure, in the same setting: the result for `O=C(CSc1nnc(-c2ccccc2)n1-c1cccc(Cl)c1)Nc1nncs1` reads 20.3%. Take `CCc1nnc(NC(=O)CSc2nnc(-c3ccccc3)n2-c2ccccc2Cl)s1`: the inhibition at Neuropilin-1 [4] came out at 5.3%. On the same count and under the same terms, the result for `CCc1nnc(NC(=O)CSc2nnc(-c3ccccc3)n2-c2ccc(Cl)cc2)s1` reads 3.2%; that for `CCc1nnc(NC(=O)CSc2nnc(-c3ccccc3)n2-c2cccc(OC)c2)s1`, 0%; that for `CCc1nnc(NC(=O)CSc2nnc(-c3ccccc3)n2-c2cccc(F)c2)s1`, 6%. On Neuropilin-1 [5], `CCOc1ccccc1NC(=O)c1ccc(C)c(S(=O)(=O)Nc2ccc(C)cc2)c1` gave an inhibition of 32%. For the molecule `CCc1nnc(NC(=O)CSc2nnc(-c3cccnc3)n2-c2cccc(C)c2)s1`, the inhibition at Neuropilin-1 [4] was 0%. As for `CCc1nnc(NC(=O)CSc2nnc(-c3ccccc3)[nH]2)s1`, the inhibition on Neuropilin-1 [4] is 2.1%. Still for that read-out and setting: then `CCc1nnc(NC(=O)CSc2nnc(-c3ccc(Cl)cc3)n2-c2cccc(C)c2)s1`, with 37.4%. Same read-out and setting: then `CCc1nnc(NC(=O)CSc2nnc(-c3ccccc3)n2Cc2cccc(C)c2)s1`, with 4.1%. For `CCc1nnc(NC(=O)CSc2nnc(-c3ccc(O)cc3)n2-c2cccc(C)c2)s1`, the inhibition on Neuropilin-1 [4] worked out at 59.9%. Besides, the IC50 on Neuropilin-1 [3] came to 41.7 µM. For the molecule `Cc1ccc(-c2nc3ccccc3[nH]2)cc1NC(=S)NC(=O)c1ccc2c(c1)OCCO2`, the IC50 on Neuropilin-1 [6] was determined as 34 µM. Turning to `CCc1nnc(NC(=O)CSc2nnc(Cc3ccccc3)n2-c2cccc(C)c2)s1`, the inhibition at Neuropilin-1 [4] amounted to 4.3%. Same read-out and setting: then `COCc1nnc(NC(=O)CSc2nnc(-c3ccccc3)n2-c2cccc(C)c2)s1`, with 10.3%; and `CCc1nnc(NC(=O)CSc2nncn2-c2cccc(Cl)c2)s1`, with 0%.

Consider `CCc1nnc(NC(=O)CSc2nnc(-c3ccc(C)cc3)n2-c2cccc(C)c2)s1`, for which, on Neuropilin-1 [4], the inhibition came to 76%. Moreover, the inhibition entry in assay [1] is “Active”. The half-inhibitory concentration (IC50) on Neuropilin-1 [3] was 19.1 µM. In the case of `CCc1nnc(NC(=O)CSc2nnc(-c3ccccc3)n2-c2ccccc2)s1`, the inhibition at Neuropilin-1 [4] stood at 4.8%. Same read-out and setting: the result for `Cc1cccc(-n2c(SCC(=O)Nc3nnc(C)s3)nnc2-c2ccccc2)c1` reads 31.5%; that for `CCCc1nnc(NC(=O)CSc2nnc(-c3ccccc3)n2-c2cccc(C)c2)s1`, 47.8%.
